According to ChEMBL document CHEMBL1201862, “PubChem BioAssay data set” (2004):
Values joined by “and” are separate entries in the source; they are usually repeats but may differ in a detail not shown here. Identical values can stand only once.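 Dose response: 5 concentrations. Exposure: 48 h. Format: 96-well plates. Endpoint: linear interpolation; highest concentration if not reached. Here, GI50 denotes the concentration required for 50% inhibition of growth.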 Active and inactive are the calls of the source. Cut-off read from the data, not from the text of the source: active = GI50 up to about 1.1 µM and inactive = higher.

What was measured:
Test in all cases: inhibition of tumour cell growth, NCI panel, 48 h
[1] = tested on: TK-10
[2] = tested on: SK-OV-3
[3] = tested on: SF-295
[4] = tested on: SNB-19
[5] = tested on: LOX IMVI
[6] = tested on: CAKI-1
[7] = tested on: OVCAR-5
[8] = tested on: HCT-15
[9] = tested on: OVCAR-3
[10] = tested on: A498
[11] = tested on: BT-549
[12] = tested on: SW-620
[13] = tested on: NCI-H522
[14] = tested on: EKVX
[15] = tested on: UACC-62
[16] = tested on: U-251
[17] = tested on: MCF7
[18] = tested on: MDA-MB-231
[19] = tested on: SK-MEL-2
[20] = tested on: NCI/ADR-RES
[21] = tested on: IGROV-1
[22] = tested on: CCRF-CEM
[23] = tested on: OVCAR-4
[24] = tested on: UO-31
[25] = tested on: SF-539
[26] = tested on: HOP-62
[27] = tested on: UACC-257
[28] = tested on: NCI-H460
[29] = tested on: A549
[30] = tested on: HCT-116
[31] = tested on: K562
[32] = tested on: KM12
[33] = tested on: HT-29
[34] = tested on: RPMI-8226
[35] = tested on: NCI-H226
[36] = tested on: SR
[37] = tested on: Malme-3M
[38] = tested on: RXF 393
[39] = tested on: COLO 205
[40] = tested on: T47D
[41] = tested on: NCI-H23
[42] = tested on: OVCAR-8
[43] = tested on: MOLT-4
[44] = tested on: ACHN
[45] = tested on: HOP-92
[46] = tested on: SK-MEL-5
[47] = tested on: SNB-75
[48] = tested on: 786-0
[49] = tested on: SF-268
[50] = tested on: M14
[51] = tested on: Hs-578T
[52] = tested on: PC-3
[53] = tested on: MDA-MB-435
[54] = tested on: HCC 2998
[55] = tested on: HL-60
[56] = tested on: DU-145
[57] = tested on: SK-MEL-28
[58] = tested on: SN12C

`O=C1CCCn2c(nc3ccccc32)N1` was tested, and the GI50 [1] was > 100 µM (inactive), the GI50 [2] was > 100 µM (inactive) and the GI50 [3] was > 100 µM (inactive). For the same compound, the GI50 [4] was > 100 µM (inactive), the GI50 [5] was > 100 µM (inactive) and the GI50 [6] was > 100 µM (inactive). The GI50 [7] was > 100 µM (inactive), the GI50 [8] was greater than 100 µM and the GI50 [9] was > 100 µM (inactive). The GI50 [10] was > 100 µM (inactive), the GI50 [11] was > 100 µM (inactive) and the GI50 [12] was > 100 µM (inactive). For the same compound, the GI50 [13] was > 100 µM (inactive), the GI50 [14] was > 100 µM (inactive) and the GI50 [15] was > 100 µM (inactive). The GI50 [16] was > 100 µM (inactive), the GI50 [17] was > 100 µM (inactive) and the GI50 [18] was > 100 µM (inactive). The GI50 [19] was > 100 µM (inactive), the GI50 [20] was > 100 µM (inactive) and the GI50 [21] was > 100 µM (inactive). For the same compound, the GI50 [22] was > 100 µM (inactive), the GI50 [23] was > 100 µM (inactive) and the GI50 [24] was > 100 µM (inactive). The GI50 [25] was > 100 µM (inactive), the GI50 [26] was > 100 µM (inactive) and the GI50 [27] was > 100 µM (inactive). For the same compound, the GI50 [28] was > 100 µM (inactive), the GI50 [29] was > 100 µM (inactive) and the GI50 [30] was > 100 µM (inactive). For the same compound, the GI50 [31] was > 100 µM (inactive), the GI50 [32] was > 100 µM (inactive) and the GI50 [33] was > 100 µM (inactive). For the same compound, the GI50 [34] was > 100 µM (inactive), the GI50 [35] was > 100 µM (inactive) and the GI50 [36] was > 100 µM (inactive). The GI50 [37] was > 100 µM (inactive), the GI50 [38] was > 100 µM (inactive) and the GI50 [39] was > 100 µM (inactive). For the same compound, the GI50 [40] was > 100 µM (inactive), the GI50 [41] was > 100 µM (inactive) and the GI50 [42] was > 100 µM (inactive). For the same compound, the GI50 [43] was > 100 µM (inactive), the GI50 [44] was > 100 µM (inactive) and the GI50 [45] was > 100 µM (inactive). For the same compound, the GI50 [46] was > 100 µM (inactive), the GI50 [47] was > 100 µM (inactive) and the GI50 [48] was > 100 µM (inactive). For the same compound, the GI50 [49] was > 100 µM (inactive), the GI50 [50] was > 100 µM (inactive) and the GI50 [51] was > 100 µM (inactive). The GI50 [52] was > 100 µM (inactive) and the GI50 [53] was > 100 µM (inactive).
In the case of `N#Cc1c(N)nc(Sc2ccccc2N)c(C#N)c1-c1ccccc1`, the GI50 [1] is reported as 11.5 µM (inactive), the GI50 [4] is reported as 29.4 µM (inactive) and the GI50 [5] is reported as 12.9 µM (inactive). For the same compound, the GI50 [54] was 15 µM (inactive), the GI50 [6] was 28.6 µM (inactive) and the GI50 [7] was 46.3 µM (inactive). The GI50 [8] was 15.2 µM, the GI50 [55] was 0.141 µM (active) and the GI50 [11] was 10.8 µM (inactive). The GI50 [12] was 30.9 µM (inactive), the GI50 [14] was 16.2 µM (inactive) and the GI50 [15] was 10.3 µM (inactive). For the same compound, the GI50 [16] was 19.6 µM (inactive), the GI50 [17] was 10.6 µM (inactive) and the GI50 [18] was 14 µM (inactive). For the same compound, the GI50 [19] was 10.9 µM (inactive), the GI50 [20] was 11.5 µM (inactive) and the GI50 [21] was 16.9 µM (inactive). For the same compound, the GI50 [23] was 15.9 µM (inactive), the GI50 [24] was 11.4 µM (inactive) and the GI50 [25] was 26.9 µM (inactive). The GI50 [26] was 22.1 µM (inactive), the GI50 [27] was 24.9 µM (inactive) and the GI50 [28] was 14.8 µM (inactive). For the same compound, the GI50 [29] was 19.4 µM (inactive), the GI50 [30] was 15.7 µM (inactive) and the GI50 [56] was 14.8 µM (inactive). The GI50 [31] was 9.53 µM (inactive), the GI50 [32] was 17.8 µM (inactive) and the GI50 [33] was 24.5 µM (inactive). The GI50 [34] was 12.7 µM (inactive), the GI50 [35] was 47.2 µM (inactive) and the GI50 [36] was 21 µM (inactive). The GI50 [37] was 16.9 µM (inactive), the GI50 [39] was 35.7 µM (inactive) and the GI50 [57] was 28.2 µM (inactive). The GI50 [41] was 13.3 µM (inactive), the GI50 [42] was 20.2 µM (inactive) and the GI50 [43] was 11.6 µM (inactive). The GI50 [44] was 19.9 µM (inactive), the GI50 [45] was 24.5 µM (inactive) and the GI50 [46] was 19.4 µM (inactive). The GI50 [48] was 13.5 µM (inactive), the GI50 [49] was 17.8 µM (inactive) and the GI50 [50] was 24.2 µM (inactive). The GI50 [52] was 9.64 µM (inactive) and the GI50 [53] was 23.6 µM (inactive).
For `CNC(=O)OCC1C2=C(C(=O)C(C)=C(N)C2=O)N2CC3C(N3C)C12OC` (stereo not given), the GI50 [1] was 27.7 µM (inactive), the GI50 [2] was 28.9 µM (inactive) and the GI50 [3] was 5.02 µM (inactive). The GI50 [4] was 3.3 µM (inactive), the GI50 [5] was 9.91 µM (inactive) and the GI50 [58] was 5.61 µM (inactive). The GI50 [54] was 12.4 µM (inactive), the GI50 [6] was 3.16 µM (inactive) and the GI50 [7] was 72.8 µM (inactive). For the same compound, the GI50 [8] was 12.1 µM, the GI50 [55] was 1.92 µM (inactive) and the GI50 [9] was 26.5 µM (inactive). The GI50 [10] was 15.3 µM (inactive), the GI50 [11] was 31.8 µM (inactive) and the GI50 [12] was 10.8 µM (inactive). For the same compound, the GI50 [13] was 3.19 µM (inactive), the GI50 [14] was > 100 µM (inactive) and the GI50 [15] was 9.93 µM (inactive). For the same compound, the GI50 [16] was 14.1 µM (inactive), the GI50 [17] was 3.29 µM (inactive) and the GI50 [18] was > 100 µM (inactive). For the same compound, the GI50 [19] was 26.1 µM (inactive), the GI50 [20] was 32.5 µM (inactive) and the GI50 [21] was 12.4 µM (inactive). The GI50 [22] was 3.76 µM (inactive), the GI50 [23] was 15.7 µM (inactive) and the GI50 [25] was 10.1 µM (inactive). The GI50 [26] was 14.4 µM (inactive), the GI50 [27] was 21.4 µM (inactive) and the GI50 [28] was 0.0867 µM (active). The GI50 [29] was 1.83 µM (inactive), the GI50 [30] was 10.9 µM (inactive) and the GI50 [56] was 2.47 µM (inactive). For the same compound, the GI50 [31] was 25.6 µM (inactive), the GI50 [33] was 10.3 µM (inactive) and the GI50 [34] was 23.8 µM (inactive). The GI50 [35] was 32.1 µM (inactive), the GI50 [36] was 0.867 µM (active) and the GI50 [37] was 2.38 µM (inactive). For the same compound, the GI50 [38] was 21.3 µM (inactive), the GI50 [39] was 13.6 µM (inactive) and the GI50 [40] was 21.9 µM (inactive). For the same compound, the GI50 [57] was 47.9 µM (inactive), the GI50 [41] was 1.53 µM (inactive) and the GI50 [42] was 11.4 µM (inactive). The GI50 [43] was 3.29 µM (inactive), the GI50 [44] was 3.8 µM (inactive) and the GI50 [45] was 23.7 µM (inactive). For the same compound, the GI50 [46] was 11.5 µM (inactive), the GI50 [48] was 4.02 µM (inactive) and the GI50 [50] was 7.24 µM (inactive). The GI50 [52] was 13.9 µM (inactive) and the GI50 [53] was 38.1 µM (inactive).
In the case of `CC(C)CC(C/C=C1/CC(CO)(COC(=O)C(C)(C)C)OC1=O)CC(C)C` (stereo not given), the GI50 [2] is reported as 19.3 µM (inactive), the GI50 [4] is reported as 10.5 µM (inactive) and 6.03 µM (inactive) and the GI50 [58] is reported as 8.49 µM (inactive). For the same compound, the GI50 [54] was 1.28 µM (inactive) and 1.27 µM (inactive), the GI50 [7] was 6.7 µM (inactive) and 11.8 µM (inactive) and the GI50 [8] was 15 µM and 14.7 µM. The GI50 [10] was 10 µM (inactive) and 9.02 µM (inactive), the GI50 [11] was 11.7 µM (inactive) and 15.5 µM (inactive) and the GI50 [12] was 4.37 µM (inactive) and 4.92 µM (inactive). For the same compound, the GI50 [13] was 14.1 µM (inactive) and 14.8 µM (inactive), the GI50 [15] was 11.7 µM (inactive) and 15.2 µM (inactive) and the GI50 [16] was 8.13 µM (inactive). The GI50 [17] was 19.7 µM (inactive) and 18.2 µM (inactive), the GI50 [18] was 3.03 µM (inactive) and the GI50 [19] was 16.4 µM (inactive) and 11.9 µM (inactive). For the same compound, the GI50 [20] was 14 µM (inactive) and 17.4 µM (inactive), the GI50 [21] was 15.2 µM (inactive) and 12.1 µM (inactive) and the GI50 [22] was 0.069 µM (active). The GI50 [23] was 16.2 µM (inactive) and 18.2 µM (inactive), the GI50 [25] was 6.49 µM (inactive) and the GI50 [27] was 16.4 µM (inactive) and 16.8 µM (inactive). For the same compound, the GI50 [28] was 278 nM (active) and 209 nM (active), the GI50 [30] was 15.9 µM (inactive) and 13.8 µM (inactive) and the GI50 [31] was 173 nM (active) and 123 nM (active). The GI50 [36] was 1.51 µM (inactive), the GI50 [38] was 16.1 µM (inactive) and 21.8 µM (inactive) and the GI50 [39] was 0.136 µM (active). The GI50 [40] was 19.5 µM (inactive) and 11.7 µM (inactive), the GI50 [41] was 11.8 µM (inactive) and 10.9 µM (inactive) and the GI50 [42] was 19 µM (inactive) and 17 µM (inactive). For the same compound, the GI50 [43] was 1.3 µM (inactive) and 2.14 µM (inactive), the GI50 [45] was 0.893 µM (active) and the GI50 [47] was 13.7 µM (inactive) and 11.1 µM (inactive). The GI50 [49] was 10.8 µM (inactive) and 12.4 µM (inactive), the GI50 [50] was 12.1 µM (inactive) and 13.8 µM (inactive) and the GI50 [52] was 8.89 µM (inactive) and 8.83 µM (inactive). The GI50 [53] was 410 nM (active) and 818 nM (active).
